Assays:
KDAC1 = molecular target: T1, KDAC1 (Homo sapiens, UniProt Q13547); test: in vitro KDAC1/6 assay, substrate ZMAL; assay type: biochemical
T1 construct: purchased Enzo Life Sciences
Experimental: 5 times), Fmoc deprotection and amino acid coupling were repeated until the last amino acid was coupled and the Fmoc group was removed. The resin was washed with dichloromethane (DCM, 3 min, 5 times), methanol (5 min, 3 times) and DCM (3 min, 5 times). […]
acid (TFA) at RT (1 h, 2 times). Cleaved peptide was precipitated with cold diethylether, filtrated and dried. The peptide was purified by semi-preparative HPLC (Merck-Hitachi High Speed LC system) using a Merck Hibar LiChrosorb RP-8 column (250–25 mm, 7 μm). For separation a linear gradient from 20–50% (vol/vol) acetonitrile (ACN) with 0.1% (vol/vol) TFA in 60 min was applied (flow-rate: 8 ml min-1). […]
high-throughput fluorescence-based assay using the substrate ZMAL (Z-Lys(Acetyl)- […]
A solution that contained DMSO was used a negative
The reaction was started through the addition of KDAC1 (Enzo Life Sciences, 10 μL) or […]
initial state conditions the substrate conversion was adjusted to 10–30% prior to inhibition tests. The reaction was stopped by the addition of a solution containing trypsin and TSA […]
Then fluorescence intensity of the released fluorophore of the deacetylated lysine derivative was measured in a microplate […]
reader (BMG Polarstar, Oex 390 nm, Oem 460 nm). The amount of inhibition was determined with respect to the mixture with only DMSO.
Immunocytochemistry equipment and settings. […]

[1] = tested on: mitochondrial lysine-acetylation in HEK293 cells; test: mitochondrial protein acetylation, western blot of mitochondrial extracts; assay type: cell-based; settings: 16 h
Experimental: page 27: Cell cultiva tion. HEK-293 cells (ATCC accession no. CRL-1573) were grown in Dulbecco's modified Eagle's medium (DMEM, PAA) containing 10% (vol/vol) fetal calf serum (FCS, PAA), 1% (vol/vol) penicillin (PAA), 1% (vol/vol) streptomycin (PAA), 1% (vol/vol), L- glutamine (PAA) at 37 °C in a 5% (vol/vol) CO2 atmosphere. Mitochondrial extra ction. HEK-293 cells (ATCC accession no. CRL-1573) were treated with nicotinamide or […]2 at the indicated concentrations for 16 h. Cells were washed in PBS and lysed in 5 packed cell volumes of lysis buffer (20 mM HEPES/KOH, 250 mM sucrose; 10 mM KCl, 1.5 mM MgCl2, 1 mM EDTA, 1 mM EGTA, 1 mM DTT; 0.1 mM PMSF, 1uComplete Protease Inhibitor Cocktail (Roche), pH 7.5). Cells were then homogenized in a Dounce homogenizer and 10% (vol/vol) of sample was removed for use as whole cell extract (WCE). To the remaining lysate, unbroken cells and nuclei were removed by centrifugation (10 min, 800g). The supernatant was transferred and centrifuged (10 min, 7,000g) to pellet mitochondria. Mitochondria were washed twice in lysis buffer, repeating centrifugation after each wash, followed by resuspending washed mitochondria in lysis buffer. […] Lysates were cleared by centrifugation, protein concentrations were quantitated and normalized with 1u Laemmli Buffer. […]

human Sirt1 = molecular target: T2, human Sirt1 (Homo sapiens, UniProt Q96EB6); test: HPLC-based conversion assay, non-labelled acetyl-lysine α-tubulin peptide; settings: read-out: inhibition of Sirt1
T2 sequence (Q96EB6 133-747): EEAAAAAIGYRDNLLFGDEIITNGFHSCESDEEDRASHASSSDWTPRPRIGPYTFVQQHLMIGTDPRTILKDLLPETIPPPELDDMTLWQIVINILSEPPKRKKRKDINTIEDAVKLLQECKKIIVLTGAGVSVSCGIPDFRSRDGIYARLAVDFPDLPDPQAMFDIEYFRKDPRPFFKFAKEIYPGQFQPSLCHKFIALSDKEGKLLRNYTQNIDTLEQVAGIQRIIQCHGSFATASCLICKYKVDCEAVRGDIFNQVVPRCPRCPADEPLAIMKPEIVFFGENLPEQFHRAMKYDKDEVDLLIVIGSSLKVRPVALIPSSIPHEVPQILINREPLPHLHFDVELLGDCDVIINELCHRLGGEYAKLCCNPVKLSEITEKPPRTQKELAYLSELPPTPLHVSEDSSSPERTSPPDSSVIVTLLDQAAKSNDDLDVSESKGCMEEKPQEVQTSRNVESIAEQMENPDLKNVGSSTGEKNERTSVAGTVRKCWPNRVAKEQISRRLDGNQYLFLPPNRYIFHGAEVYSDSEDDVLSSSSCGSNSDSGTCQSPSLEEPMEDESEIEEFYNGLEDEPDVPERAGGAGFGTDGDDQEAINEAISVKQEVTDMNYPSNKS

T1 sequence (Q13547 whole entry): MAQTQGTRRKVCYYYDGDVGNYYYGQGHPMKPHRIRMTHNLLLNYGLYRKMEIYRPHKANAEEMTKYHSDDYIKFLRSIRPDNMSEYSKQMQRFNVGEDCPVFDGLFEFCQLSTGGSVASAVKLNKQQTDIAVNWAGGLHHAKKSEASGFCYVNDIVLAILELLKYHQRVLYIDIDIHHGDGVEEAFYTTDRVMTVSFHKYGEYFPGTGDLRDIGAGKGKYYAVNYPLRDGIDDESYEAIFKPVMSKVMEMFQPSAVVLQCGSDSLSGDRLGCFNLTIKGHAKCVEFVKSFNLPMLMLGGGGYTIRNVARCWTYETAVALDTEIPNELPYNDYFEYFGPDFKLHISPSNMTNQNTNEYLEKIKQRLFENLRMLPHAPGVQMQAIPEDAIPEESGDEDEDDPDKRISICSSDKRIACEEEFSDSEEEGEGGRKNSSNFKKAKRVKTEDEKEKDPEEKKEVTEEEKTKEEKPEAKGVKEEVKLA

Cc1cc(C)nc(SCC(=O)Nc2ncc(Cc3cccc4ccccc34)s2)n1 [SirReal2]
activity of KDAC1 (KDAC1): does not affect | acetylation of mitochondrial proteins [1]: does not alter | inhibition at 100 µM (human Sirt1): 22%

From PMC4339887, “Selective Sirt2 inhibition by ligand-induced rearrangement of the active site” (Nature Communications, 2015)
